Measured values: patent publication US5798365A, “Substituted quinoline derivatives, a process for their preparation, and their use” (Hoechst Aktiengesellschaft, priority 1994, dated 1998)
Converted amounts (≈) assume the structure as drawn. Like-named read-outs stand apart in the source and are kept apart here.

Columns and labels:
HIV = assay: Testing preparations against HIV in cell culture (infected human donor lymphocytes); assay type: cell-based; settings: HIV-infected lymphocytes, 3 days; for MIC: Human immunodeficiency virus 1, 72 h, lowest concentration without giant cells; for IC50: Human immunodeficiency virus 1, Lymphocyte, 72 h, read-out: IC-50
Protocol: Testing preparations against HIV in cell culture
Description of the method
The complete medium additionally contains 20% foetal calf serum and 40 IU/ml recombinant interleukin 2.
Lymphocytes which have been isolated from fresh donor blood by means of Ficoll® gradient centrifugation are cultured, at 37° C. for 36 h and under 5% CO2, in complete medium in the added presence of […] phytohemagglutinin (Wellcome). After the addition of 10% DMSO, the cells are frozen at a cell density of 5×10^6 and stored in liquid nitrogen. For the experiment, the cells are thawed, washed in RPMI medium and cultured for 3-4 days in complete medium.
The preparations for testing were dissolved in DMSO at a concentration of 16.7 mg/ml and diluted to 1 mg/ml in complete medium. 0.4 ml of medium was initially introduced in 24-well multiwell plates. After 0.1 ml of the dissolved preparation had been added to the upper row of the plate, a geometrical dilution series was produced by transferring 0.1 ml on each occasion. Preparation-free controls always contained 0.4 ml of complete medium containing 0.5% DMSO.
Lymphocyte cultures having a cell count of 5×10^5 cells/ml were infected by adding a 1/50 volume of the supernatant from lymphocyte cultures infected with HIV. The titer of these culture supernatants was determined, by end point dilution, to be 1-5×10^6 infectious units/ml. After incubating at 37° C. for 30 min, the infected lymphocytes were centrifuged off and taken up once again in the same volume of medium. 0.6 ml of this cell suspension was added to each of the wells in the test plate. The assay mixtures were incubated at 37° C. for 3 days.
The infected cell cultures were examined under the microscope for the presence of giant cells, which indicate that the virus is multiplying actively in the culture. The lowest preparation concentration at which no giant cells appeared was defined as the inhibitory concentration against HIV (MIC value). As a control, the presence of HIV antigen in the supernatants from the culture plates was determined using a test for HIV antigen in accordance with the manufacturer's (Organon) instructions.

[1] = molecular target: T1, HIV reverse transcriptase (Human immunodeficiency virus type 1 group M subtype B, UniProt P04585); assay: Inhibition of HIV reverse transcriptase, scintillation proximity assay (SPA); assay type: biochemical; settings: RT-SPA, 60 min, 37° C., read-out: Reverse Transcriptase Asaay IC-50 (converted)
T1 construct: purchased HT-Biotechnology LTD, Cambridge, UK; host or cells: E. coli
Protocol: Investigation of the ability of the substances to inhibit the HIV reverse transcriptase
The activity of the reverse transcriptase (RT) was measured by means of a scintillation proximity assay (SPA).
The reagent kit for the RT-SPA was obtained from Amersham/Buchler (Braunschweig). The RT enzyme (originating from HIV and cloned in E. coli) was provided by HT-Biotechnology LTD, Cambridge, UK.
The test was carried out in accordance with the supplier's (Amersham) methods manual--with the following modifications:
bovine serum albumin was added to the assay buffer to a final concentration of 0.5 mg/ml.
The test was carried out in Eppendorf reaction tubes using a mixture volume of […].
The supplier's RT concentrate (5000 U/ml) was diluted in 20 mM tris-HCl buffer; pH 7.2; 30% glycerol to an activity of 15 U/ml.
The assay mixtures were incubated for 60 min (at 37° C.).
After the reaction had been stopped and "developed" using the bead suspension, […] of assay mixture was transferred into 4.5 ml of 10 mM tris-HCl buffer; pH 7.4; 0.15M NaCl
and the tritium activity was measured in a β counter.
In order to carry out a preliminary test for inhibitor activity, the substances were dissolved in DMSO (stock solution concentration=1 mg/ml) and tested at 10^-1, 10^-2, 10^-3, etc. dilutions in DMSO.
In order to determine the IC50 values, the stock solutions of inhibitor were further diluted in 50 mM tris-HCl buffer, pH 8, and tested at suitable concentrations.
The concentration giving rise to 50% inhibition of the enzyme was ascertained from the graphic depiction of RT activity versus log Cinh.

| Structure (SMILES) | MIC (HIV; 37° C.) | IC50 (HIV; 37° C.) | IC50 ([1]; molar value in parentheses) | IC50 [1] | IC50 (HIV; unit as printed for compound 66) | IC50 ([1]; unit as printed for compound 59) |
| --- | --- | --- | --- | --- | --- | --- |
| CCCC=C1c2cc(OC)ccc2NC(=O)C1(C)C [Compound 41, E/Z-4-n-butylene-3,4-dihydro-3,3-dimethyl-6-methoxyquinolin-2(1H)-one] | 0.2 µg/mL (≈ 0.771 µM) | ~0.2 µg/mL (≈ 0.771 µM) |  |  |  |  |
| CCOc1ccc2c(c1)C(=CC(C)C)C(C)(C)C(=S)N2 [Compound 47] | < 0.08 µg/mL | ~0.015 µg/mL (≈ 0.0518 µM) |  |  |  |  |
| CC=C1c2ccccc2NC(=S)C12CCCC2 [Compound 38] | < 0.2 µg/mL | ~0.08 µg/mL (≈ 0.329 µM) |  |  |  |  |
| CCCC=C1c2cc(OCC)ccc2NC(=S)C1(C)C [Compound 55] | < 0.08 µg/mL | ~0.006 µg/mL (≈ 0.0207 µM) | 31 nM | 31.1 nM |  |  |
| C=CC=C1c2cc(Cl)ccc2NC(=S)C1(C)C [Compound 14] | < 0.008 µg/mL | 0.005 µg/mL (≈ 0.019 µM) | 18 nM | 15.2 nM |  |  |
| CCC/C=C1\c2cc(Cl)ccc2NC(=S)C1(C)C [Compound 75, E-4-n-butylene-6-chloro-3,4-dihydro-3,3-dimethylquinolin-2(1H)-thione] | 0.004 µg/mL (≈ 0.0143 µM) | ~0.0018 µg/mL (≈ 0.00643 µM) |  | < 3.57 nM |  |  |
| COc1ccc2c(c1)C(=CCC(C)C)C(C)(C)C(=O)N2 [Compound 66] | < 0.1 µg/mL |  | 70 nM | 69.5 nM | ~0.01 µg/mL (≈ 0.0366 µM) |  |
| CCOc1ccc2c(c1)C(=CCC(C)C)C(C)(C)C(=S)N2 [Compound 59] | < 0.02 µg/mL | ~0.008 µg/mL (≈ 0.0264 µM) | 46 nM |  |  | 46.1 nM |
| CCC=C1c2cc(OC)ccc2NC(=S)C1(C)C [Compound 45] | 0.004 µg/mL (≈ 0.0153 µM) | 0.002 µg/mL (≈ 0.00765 µM) | 9 nM | 9.18 nM |  |  |
| CCCC=C1c2ccccc2NC(=S)C1(C)C [Compound 28] | 0.008 µg/mL (≈ 0.0326 µM) | ~0.01 µg/mL (≈ 0.0408 µM) | 24 nM | 23.6 nM |  |  |
| CC(C)C=C1c2ccccc2NC(=S)C12CCC2 [Compound 34] | < 0.04 µg/mL | ~0.01 µg/mL (≈ 0.0388 µM) |  |  |  |  |
| C=CC=C1c2ccccc2NC(=S)C1(C)C [Compound 30] | < 0.2 µg/mL | ~0.02 µg/mL (≈ 0.0872 µM) |  |  |  |  |
| CCCC=C1c2cc(OCC)ccc2NC(=O)C1(C)C [Compound 54] | 0.1 µg/mL (≈ 0.366 µM) | 0.05 µg/mL (≈ 0.183 µM) |  |  |  |  |
| CC(C)C=C1c2ccccc2NC(=S)C1(C)C [Compound 24] |  |  | 270 nM | 270 nM |  |  |
| CCCC=C1c2ccccc2NC(=O)C12CCCC2 [Compound 6, E/Z-4-n-butylene-3,3-cyclopentylidene-3,4-dihydroquinolin-2(1H)-one] |  |  | 113 nM | 113 nM |  |  |
| C=CC=C1c2cc(Cl)ccc2NC(=O)C1(C)C [Compound 13] | > 0.2 µg/mL | 0.04 µg/mL (≈ 0.161 µM) |  |  |  |  |
| COc1ccc2c(c1)C(=CC(C)C)C(C)(C)C(=S)N2 [Compound 61] | 0.02 µg/mL (≈ 0.0726 µM) | ~0.004 µg/mL (≈ 0.0145 µM) | 62 nM | 61.7 nM |  |  |
| COc1ccc2c(c1)C(=CC(C)C)C(C)(C)C(=O)N2 [Compound 43] | 0.2 µg/mL (≈ 0.771 µM) | 0.05 µg/mL (≈ 0.193 µM) |  |  |  |  |
| CCCCCC=C1c2ccccc2NC(=S)C12CCC2 [Compound 32] | 0.2 µg/mL (≈ 0.701 µM) | ~0.08 µg/mL (≈ 0.28 µM) |  |  |  |  |
| CC(C)C=C1c2cc(Cl)ccc2NC(=O)C1(C)C [Compound 17] | < 0.02 µg/mL | ~0.04 µg/mL (≈ 0.152 µM) |  |  |  |  |
| CCCCCC=C1c2cc(Cl)ccc2NC(=S)C1(C)C [Compound 16] | < 0.2 µg/mL | ~0.03 µg/mL (≈ 0.0974 µM) |  |  |  |  |
| C=CC=C1c2cc(OC)ccc2NC(=S)C1(C)C [Compound 68] |  |  |  | ~38.6 nM |  |  |
| CCCCCC=C1c2cc(OC)ccc2NC(=S)C1(C)C [Compound 64] |  |  | 109 nM | 109 nM |  |  |
